Laboratory results taken from ChEMBL document CHEMBL5500360, “Discovery of N-(4-((6-(3,5- Dimethoxyphenyl)-9H-purine derivatives as irreversible covalent FGFR inhibitors” (Eur J Med Chem, 2024).

Key:
MDA-MB-435 = experiment: cells; conditions: Homo sapiens, MDA-MB-435, 72 h
Description: Antiproliferative activity against human MDA-MB-435 cells assessed as inhibition of cell growth incubated for 72 hrs by MTT assay

MDA-MB-231 = experiment: cells; conditions: Homo sapiens, MDA-MB-231, 72 h
KYSE-150 cell line = experiment: cells; conditions: Homo sapiens, KYSE-150, 72 h
Description: Antiproliferative activity against human KYSE-150 cells assessed as inhibition of cell growth incubated for 72 hrs by MTT assay

HepG2 = experiment: cells; conditions: Homo sapiens, HepG2, 72 h
in vitro = conditions: human, HUVEC cells
Description: Cytotoxicity against HUVEC cells assessed as inhibition of cell growth incubated for 72 hrs by MTT assay

[1] = Metabolic stability in human liver microsomes assessed as parent compound remaining at 1 uM measured after 45 mins by LC-MS/MS analysis; assay type: ADME, Microsome; conditions: read-out: Stability
[2] = Metabolic stability in mouse liver microsomes assessed as intrinsic clearance at 1 uM incubated for 45 mins by LC-MS/MS analysis; assay type: ADME, Microsome; conditions: read-out: CLH
[3] = Metabolic stability in mouse liver microsomes assessed as half-life at 1 uM incubated for 45 mins by LC-MS/MS analysis; assay type: ADME, Microsome
[4] = Metabolic stability in rat liver microsomes assessed as parent compound remaining at 1 uM measured after 5 mins by LC-MS/MS analysis; assay type: ADME, Microsome; conditions: read-out: Stability
[5] = Metabolic stability in rat liver microsomes assessed as half-life at 1 uM incubated for 45 mins by LC-MS/MS analysis; assay type: ADME, Microsome
[6] = Metabolic stability in human liver microsomes assessed as parent compound remaining at 1 uM measured after 30 mins by LC-MS/MS analysis; assay type: ADME, Microsome; conditions: read-out: Stability
[7] = Metabolic stability in mouse liver microsomes assessed as parent compound remaining at 1 uM measured after 45 mins by LC-MS/MS analysis; assay type: ADME, Microsome; conditions: read-out: Stability
[8] = Metabolic stability in human liver microsomes assessed as half-life at 1 uM incubated for 45 mins by LC-MS/MS analysis; assay type: ADME, Microsome
[9] = Metabolic stability in human liver microsomes assessed as parent compound remaining at 1 uM measured after 15 mins by LC-MS/MS analysis; assay type: ADME, Microsome; conditions: read-out: Stability
[10] = Metabolic stability in human liver microsomes assessed as intrinsic clearance at 1 uM incubated for 45 mins by LC-MS/MS analysis; assay type: ADME, Microsome; conditions: read-out: CLH
[11] = Metabolic stability in rat liver microsomes assessed as parent compound remaining at 1 uM measured after 30 mins by LC-MS/MS analysis; assay type: ADME, Microsome; conditions: read-out: Stability
[12] = Metabolic stability in human liver microsomes assessed as parent compound remaining at 1 uM measured after 5 mins by LC-MS/MS analysis; assay type: ADME, Microsome; conditions: read-out: Stability
[13] = Metabolic stability in rat liver microsomes assessed as parent compound remaining at 1 uM measured after 15 mins by LC-MS/MS analysis; assay type: ADME, Microsome; conditions: read-out: Stability
[14] = Metabolic stability in mouse liver microsomes assessed as parent compound remaining at 1 uM measured after 30 mins by LC-MS/MS analysis; assay type: ADME, Microsome; conditions: read-out: Stability
[15] = Metabolic stability in mouse liver microsomes assessed as parent compound remaining at 1 uM measured after 5 mins by LC-MS/MS analysis; assay type: ADME, Microsome; conditions: read-out: Stability
[16] = Metabolic stability in rat liver microsomes assessed as parent compound remaining at 1 uM measured after 45 mins by LC-MS/MS analysis; assay type: ADME, Microsome; conditions: read-out: Stability
[17] = Metabolic stability in rat liver microsomes assessed as intrinsic clearance at 1 uM incubated for 45 mins by LC-MS/MS analysis; assay type: ADME, Microsome; conditions: read-out: CLH
[18] = Metabolic stability in mouse liver microsomes assessed as parent compound remaining at 1 uM measured after 15 mins by LC-MS/MS analysis; assay type: ADME, Microsome; conditions: read-out: Stability

**Q.** What does the source list for `C=CC(=O)Nc1cc(Cn2ccc3c(Cl)ncnc32)ccc1F`?
**A.** IC50 (MDA-MB-435): 27.1 µM; IC50 (MDA-MB-231): 29.3 µM; IC50 (KYSE-150 cell line): 7.68 µM; IC50 (HepG2): 26.8 µM; IC50 at 72 h (in vitro): 60.3 µM

**Q.** What does the source list for `C=CC(=O)Nc1ccc(Cn2cnc3c(-c4ccccc4)ncnc32)cc1`?
**A.** IC50 (MDA-MB-435): 12.8 µM; IC50 (MDA-MB-231): 7.22 µM; IC50 (KYSE-150 cell line): 11.2 µM; IC50 (HepG2): 9.34 µM; IC50 at 72 h (in vitro): 81.3 µM

**Q.** Which IC50 (MDA-MB-435) does the source give for `CC(Cl)C(=O)Nc1ccc(Cn2cnc3c(Cl)ncnc32)cc1` (stereo not drawn) here?
**A.** 32.2 µM

**Q.** What about the IC50 (MDA-MB-231) of the same compound?
**A.** 9.87 µM

**Q.** What about the IC50 (KYSE-150 cell line) of the same compound?
**A.** 9.46 µM

**Q.** And the IC50 (HepG2)?
**A.** 17.8 µM

**Q.** What about the IC50 at 72 h (in vitro) of the same compound?
**A.** 81.8 µM

**Q.** For `C=CC(=O)Nc1cc(Cn2cnc3cnc(Cl)nc32)ccc1F`, which IC50 (MDA-MB-435) is on record?
**A.** 20.8 µM

**Q.** What about the IC50 (MDA-MB-231) of the same compound?
**A.** 23.8 µM

**Q.** And the IC50 (KYSE-150 cell line)?
**A.** 23.8 µM

**Q.** What about the IC50 (HepG2) of the same compound?
**A.** 24.2 µM

**Q.** And the IC50 at 72 h (in vitro)?
**A.** 57.1 µM

**Q.** Which results are given for `C=CC(=O)Nc1cc(Cn2ncc3ccncc32)ccc1F`?
**A.** IC50 (MDA-MB-435): 24.1 µM; IC50 (MDA-MB-231): 9.15 µM; IC50 (KYSE-150 cell line): 5.21 µM; IC50 (HepG2): 29.1 µM; IC50 at 72 h (in vitro): 54.6 µM

**Q.** Which results are given for `C=CC(=O)Nc1cc(Cn2ccc3cc(Br)cnc32)ccc1F`?
**A.** IC50 (MDA-MB-435): 27.4 µM; IC50 (MDA-MB-231): 37.4 µM; IC50 (KYSE-150 cell line): 8.23 µM; IC50 (HepG2): 28.1 µM; IC50 at 72 h (in vitro): 75.5 µM

**Q.** Which results are given for `CC(C)=CC(=O)Nc1ccc(Cn2cnc3c(Cl)ncnc32)cc1`?
**A.** IC50 (MDA-MB-435): 30.1 µM; IC50 (MDA-MB-231): 7.36 µM; IC50 (KYSE-150 cell line): 13.3 µM; IC50 (HepG2): 19.1 µM; IC50 at 72 h (in vitro): 77.1 µM

**Q.** For `C=CC(=O)Nc1cc(Cn2ccc3c(Cl)ccnc32)ccc1F`, which IC50 (MDA-MB-435) is on record?
**A.** 27.2 µM

**Q.** What about the IC50 (MDA-MB-231) of the same compound?
**A.** 27.2 µM

**Q.** What about the IC50 (KYSE-150 cell line) of the same compound?
**A.** 23 µM

**Q.** What about the IC50 (HepG2) of the same compound?
**A.** 23.7 µM

**Q.** What about the IC50 at 72 h (in vitro) of the same compound?
**A.** 54.4 µM

**Q.** For `C=CC(=O)Nc1cc(Cn2nnc3c(C(=O)OC)cccc32)ccc1F`, which IC50 (MDA-MB-435) is on record?
**A.** 32.5 µM

**Q.** And the IC50 (MDA-MB-231)?
**A.** 20.3 µM

**Q.** What about the IC50 (KYSE-150 cell line) of the same compound?
**A.** 13.6 µM

**Q.** What about the IC50 (HepG2) of the same compound?
**A.** 30.5 µM

**Q.** What about the IC50 at 72 h (in vitro) of the same compound?
**A.** 64.2 µM

**Q.** With `O=C(CCl)Nc1ccc(Cn2cnc3c(Cl)ncnc32)cc1` as the compound, how does the IC50 (MDA-MB-435) read?
**A.** 26.4 µM

**Q.** What about the IC50 (MDA-MB-231) of the same compound?
**A.** 21.2 µM

**Q.** And the IC50 (KYSE-150 cell line)?
**A.** 12.3 µM

**Q.** What about the IC50 (HepG2) of the same compound?
**A.** 27.3 µM

**Q.** And the IC50 at 72 h (in vitro)?
**A.** 64 µM

**Q.** Which results are given for `C=CC(=O)Nc1ccc(C(=O)n2ncc3ccc(Br)cc32)cc1`?
**A.** IC50 (MDA-MB-435): 3.3 µM; IC50 (MDA-MB-231): 40 µM; IC50 (KYSE-150 cell line): 6.86 µM; IC50 (HepG2): 51.1 µM; IC50 at 72 h (in vitro): 81 µM

**Q.** What does the source list for `CC(C)C(=O)Nc1ccc(Cn2cnc3c(Cl)ncnc32)cc1`?
**A.** IC50 (MDA-MB-435): 29.4 µM; IC50 (MDA-MB-231): 7.17 µM; IC50 (KYSE-150 cell line): 18.9 µM; IC50 (HepG2): 27.6 µM; IC50 at 72 h (in vitro): 79.6 µM

**Q.** With `C=CC(=O)Nc1cc(Cn2ccc3ncnc(Cl)c32)ccc1F` as the compound, how does the IC50 (MDA-MB-435) read?
**A.** 26.2 µM

**Q.** What about the IC50 (MDA-MB-231) of the same compound?
**A.** 40.3 µM

**Q.** What about the IC50 (KYSE-150 cell line) of the same compound?
**A.** 15.9 µM

**Q.** What about the IC50 (HepG2) of the same compound?
**A.** 25.1 µM

**Q.** What about the IC50 at 72 h (in vitro) of the same compound?
**A.** 79.3 µM

**Q.** Which results are given for `C=CC(=O)Nc1cc(Cn2nnc3c(C(=O)NCC4CC(F)(F)C4)cccc32)ccc1F`?
**A.** IC50 (MDA-MB-435): 27 µM; IC50 (MDA-MB-231): 10 µM; IC50 (KYSE-150 cell line): 6.86 µM; IC50 (HepG2): 29.6 µM; IC50 at 72 h (in vitro): 46.2 µM

**Q.** For `C=CC(=O)Nc1cc(Cn2nnc3c(C(=O)NCC(F)F)cccc32)ccc1F`, which IC50 (MDA-MB-435) is on record?
**A.** 27.9 µM

**Q.** What about the IC50 (MDA-MB-231) of the same compound?
**A.** 29.2 µM

**Q.** And the IC50 (KYSE-150 cell line)?
**A.** 16.2 µM

**Q.** What about the IC50 (HepG2) of the same compound?
**A.** 19.9 µM

**Q.** What about the IC50 at 72 h (in vitro) of the same compound?
**A.** 50.9 µM

**Q.** Which results are given for `O=C(c1ccc(F)cc1)C1CCN(CCn2c(=O)[nH]c3ccccc3c2=O)CC1` [KETANSERIN]?
**A.** remaining at 0.75 h, 1 µM [1]: 45.9%; CLint scaled at 1 µM [2]: 584 mL/min/kg; half-life at 1 µM [3]: 9.35 min; remaining at 5 min, 1 µM [4]: 76.3%; half-life at 1 µM [5]: 13.2 min; remaining at 0.5 h, 1 µM [6]: 55.1%; remaining at 0.75 h, 1 µM [7]: 8.57%; half-life at 1 µM [8]: 28.6 min; remaining at 0.25 h, 1 µM [9]: 68.5%; CLint scaled at 1 µM [10]: 60.8 mL/min/kg; remaining at 0.5 h, 1 µM [11]: 24.5%; remaining at 5 min, 1 µM [12]: 84.7%; remaining at 0.25 h, 1 µM [13]: 48.5%; remaining at 0.5 h, 1 µM [14]: 18.3%; remaining at 5 min, 1 µM [15]: 70.3%; remaining at 0.75 h, 1 µM [16]: 14.1%; CLint scaled at 1 µM [17]: 188 mL/min/kg; remaining at 0.25 h, 1 µM [18]: 38.3%

**Q.** For `C=CC(=O)Nc1ccc(Cn2cnc3c(-c4cccs4)ncnc32)cc1`, which IC50 (MDA-MB-435) is on record?
**A.** 15.7 µM

**Q.** And the IC50 (MDA-MB-231)?
**A.** 6.18 µM

**Q.** What about the IC50 (KYSE-150 cell line) of the same compound?
**A.** 12.2 µM

**Q.** What about the IC50 (HepG2) of the same compound?
**A.** 11.1 µM

**Q.** What about the IC50 at 72 h (in vitro) of the same compound?
**A.** 77.2 µM
